Like-named read-outs stand apart in the source and are kept apart here.
Assays:
mTOR = mTOR (Homo sapiens, UniProt P42345); assay: mTOR enzyme assay (DELFIA, purified FLAG-TOR, His6-S6K substrate); format: biochemical; parameters: FLAG; conditions: 100 μM ATP, 2 hours
PI3K-alpha = PI3K-alpha (Homo sapiens, UniProt P42336); assay: PI3K-alpha fluorescence polarization assay; format: biochemical; conditions: 20 μM PIP2, 25 μM ATP; read-out: PI3Kα IC50
Experimental: The reaction buffer was 20 mM HEPES, pH 7.5, 2 mM MgCl2, 0.05% CHAPS; and 0.01% βME (added fresh). The stop/detection buffer was 100 mM HEPES, pH 7.5, 4 mM EDTA, 0.05% CHAPS; ATP 20 mM in water; PIP2 (diC8, Echelon, Salt Lake City Utah cat #P-4508) 1 mM in water (MW=856.5). The GST-GRP was 1.75 mg/mL or 1.4 mg/mL in 10% glycerol. The red detector (TAMRA) was 2.5 μM. Nunc 384-well black polypropylene fluorescent plates were used for PI3K assays.
The assay is run by placing 5 μL of diluted enzyme per well, then 5 μL of diluted compound (or 9.5 μL enzyme then 0.5 μL compound in DMSO) is added and mixed. Then, 10 μL substrate is added to start the reaction. The samples are incubated 30-60 minutes, then the reaction is stopped by adding 20 μL stop/detector mix. PI3K is diluted with reaction buffer (e.g., 5 μL or 7.5 μL PI3K into 620 μL reaction buffer), and 5 μL of diluted enzyme is used per well. A 5 μL portion of reaction buffer or of drug diluted in buffer (e.g., 4 μL/100 so final DMSO is 1% in reaction) is added to each. Pipetting up and down mixes the samples. Alternatively, the enzyme can be diluted to 1215 μL. In this case 9.8 μL is added per well and 0.2 μL compound is added in DMSO.
To prepare 1 mL of substrate solution, 955 μL reaction buffer, 40 μL PIP2, and 2.5 μL ATP are mixed. 10 μL of substrate is added to each well to start the reaction. […] The stop/detector mix is prepared by mixing 4 μL red detector and 1.6 μL or 2.0 μL GST-GRP with 1 mL stop buffer, which results in 10 nM probe and 70 nM GST-GRP. 20 μL of the stop/detector mix is added to each well to stop the reaction. The plates are read after 30-90 minutes keeping the red probe solutions dark. For the zero time point, stop/detector mix is added to the enzyme just before adding substrate. For an extra control, stop/detector mix is added to buffer (no enzyme) and substrate or to just buffer (no substrate). […] The recommended reaction has 0.06 μL per 20 μL (0.015 μg/20 μL) or 0.01125 μg/15 μL or 0.75 μg/mL.
Plates are read on machines with filters for TAMRA. The units are mP with no enzyme controls reading app 190-220 mP units. Fully active enzyme reduces fluorescence polarization down to 70-100 mP after 30 minutes. An active compound raises the mP values halfway to control or to 120-150 mP units.

LNCap = assay: In vitro cell growth assay (MTS), LNCap; format: cell-based; conditions: human prostate line, three days after drug treatment
Experimental: (§1) The cell lines used were human prostate lines LNCap and PC3MM2, human breast lines MDA468 and MCF7, human renal line HTB44 (A498), human colon line HCT116, and human ovarian line OVCAR3. Cells were plated in 96-well culture plates. One day following plating, the inhibitors were added to cells. Three days after drug treatment, viable cell densities were determined by metabolic conversion (by viable cells) of the dye MTS, a well-established cell proliferation assay. The assays were performed using an assay kit purchased from Promega Corp. (Madison, Wis.) following the protocol supplied with the kit. The MTS assay results were read in a 96-well plate reader by measuring absorbance at 490 nm. The effect of each treatment was calculated as percent of control growth relative to the vehicle-treated cells grown in the same culture plate.

MDA468 = assay: In vitro cell growth assay (MTS), MDA468; format: cell-based; conditions: human breast line MDA468, three days after drug treatment, read-out: MDA IC50
Experimental: as §1

PI3K-alpha, sequence (P42336 whole entry, species assumed): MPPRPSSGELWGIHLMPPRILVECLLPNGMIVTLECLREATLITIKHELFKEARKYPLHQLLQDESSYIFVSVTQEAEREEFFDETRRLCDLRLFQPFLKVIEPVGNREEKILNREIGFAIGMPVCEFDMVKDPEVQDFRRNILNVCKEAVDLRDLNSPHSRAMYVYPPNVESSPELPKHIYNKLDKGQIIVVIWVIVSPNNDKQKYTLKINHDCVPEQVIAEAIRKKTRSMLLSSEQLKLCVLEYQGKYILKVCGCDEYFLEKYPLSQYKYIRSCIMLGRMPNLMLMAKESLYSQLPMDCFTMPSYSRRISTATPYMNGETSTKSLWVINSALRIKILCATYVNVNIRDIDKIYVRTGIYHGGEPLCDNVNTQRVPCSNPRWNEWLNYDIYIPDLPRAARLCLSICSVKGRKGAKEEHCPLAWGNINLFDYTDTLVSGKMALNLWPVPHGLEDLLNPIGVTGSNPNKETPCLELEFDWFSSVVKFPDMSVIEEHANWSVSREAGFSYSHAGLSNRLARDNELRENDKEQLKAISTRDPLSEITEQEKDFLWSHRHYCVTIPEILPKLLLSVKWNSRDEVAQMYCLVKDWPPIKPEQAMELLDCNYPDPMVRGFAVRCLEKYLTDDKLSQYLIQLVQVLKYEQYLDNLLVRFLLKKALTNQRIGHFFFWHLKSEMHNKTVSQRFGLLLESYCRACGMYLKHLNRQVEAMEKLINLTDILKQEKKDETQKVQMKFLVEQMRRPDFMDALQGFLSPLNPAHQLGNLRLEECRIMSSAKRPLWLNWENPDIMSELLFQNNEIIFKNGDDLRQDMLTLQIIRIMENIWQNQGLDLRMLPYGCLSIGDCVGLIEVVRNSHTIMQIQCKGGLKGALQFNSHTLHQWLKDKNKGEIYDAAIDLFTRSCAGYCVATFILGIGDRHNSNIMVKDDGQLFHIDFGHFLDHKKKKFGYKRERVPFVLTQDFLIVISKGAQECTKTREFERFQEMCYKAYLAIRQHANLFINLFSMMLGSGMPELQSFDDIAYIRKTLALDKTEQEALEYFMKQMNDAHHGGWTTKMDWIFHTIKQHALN
PI3K-alpha, sequence (P27986 whole entry partner, species assumed): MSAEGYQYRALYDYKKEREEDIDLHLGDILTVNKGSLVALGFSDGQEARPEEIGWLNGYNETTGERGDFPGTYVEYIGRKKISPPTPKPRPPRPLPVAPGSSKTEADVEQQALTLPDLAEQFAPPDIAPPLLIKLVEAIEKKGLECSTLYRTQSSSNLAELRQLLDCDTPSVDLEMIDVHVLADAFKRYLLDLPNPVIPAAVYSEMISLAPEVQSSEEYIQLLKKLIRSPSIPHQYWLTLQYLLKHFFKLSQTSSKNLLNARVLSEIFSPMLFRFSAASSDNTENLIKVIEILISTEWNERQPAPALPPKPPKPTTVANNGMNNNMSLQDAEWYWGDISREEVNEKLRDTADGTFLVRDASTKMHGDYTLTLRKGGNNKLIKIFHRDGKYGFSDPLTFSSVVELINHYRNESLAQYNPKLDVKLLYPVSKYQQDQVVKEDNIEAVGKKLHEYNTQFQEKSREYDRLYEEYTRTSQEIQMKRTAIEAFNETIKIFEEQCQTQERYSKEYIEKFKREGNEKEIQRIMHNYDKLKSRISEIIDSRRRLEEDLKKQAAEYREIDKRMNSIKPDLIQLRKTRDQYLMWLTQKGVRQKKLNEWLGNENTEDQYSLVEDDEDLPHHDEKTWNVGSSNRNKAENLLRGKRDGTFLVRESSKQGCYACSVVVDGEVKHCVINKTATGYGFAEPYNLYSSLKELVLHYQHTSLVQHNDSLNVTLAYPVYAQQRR
mTOR, sequence (P42345 1360-2549 limits assumed): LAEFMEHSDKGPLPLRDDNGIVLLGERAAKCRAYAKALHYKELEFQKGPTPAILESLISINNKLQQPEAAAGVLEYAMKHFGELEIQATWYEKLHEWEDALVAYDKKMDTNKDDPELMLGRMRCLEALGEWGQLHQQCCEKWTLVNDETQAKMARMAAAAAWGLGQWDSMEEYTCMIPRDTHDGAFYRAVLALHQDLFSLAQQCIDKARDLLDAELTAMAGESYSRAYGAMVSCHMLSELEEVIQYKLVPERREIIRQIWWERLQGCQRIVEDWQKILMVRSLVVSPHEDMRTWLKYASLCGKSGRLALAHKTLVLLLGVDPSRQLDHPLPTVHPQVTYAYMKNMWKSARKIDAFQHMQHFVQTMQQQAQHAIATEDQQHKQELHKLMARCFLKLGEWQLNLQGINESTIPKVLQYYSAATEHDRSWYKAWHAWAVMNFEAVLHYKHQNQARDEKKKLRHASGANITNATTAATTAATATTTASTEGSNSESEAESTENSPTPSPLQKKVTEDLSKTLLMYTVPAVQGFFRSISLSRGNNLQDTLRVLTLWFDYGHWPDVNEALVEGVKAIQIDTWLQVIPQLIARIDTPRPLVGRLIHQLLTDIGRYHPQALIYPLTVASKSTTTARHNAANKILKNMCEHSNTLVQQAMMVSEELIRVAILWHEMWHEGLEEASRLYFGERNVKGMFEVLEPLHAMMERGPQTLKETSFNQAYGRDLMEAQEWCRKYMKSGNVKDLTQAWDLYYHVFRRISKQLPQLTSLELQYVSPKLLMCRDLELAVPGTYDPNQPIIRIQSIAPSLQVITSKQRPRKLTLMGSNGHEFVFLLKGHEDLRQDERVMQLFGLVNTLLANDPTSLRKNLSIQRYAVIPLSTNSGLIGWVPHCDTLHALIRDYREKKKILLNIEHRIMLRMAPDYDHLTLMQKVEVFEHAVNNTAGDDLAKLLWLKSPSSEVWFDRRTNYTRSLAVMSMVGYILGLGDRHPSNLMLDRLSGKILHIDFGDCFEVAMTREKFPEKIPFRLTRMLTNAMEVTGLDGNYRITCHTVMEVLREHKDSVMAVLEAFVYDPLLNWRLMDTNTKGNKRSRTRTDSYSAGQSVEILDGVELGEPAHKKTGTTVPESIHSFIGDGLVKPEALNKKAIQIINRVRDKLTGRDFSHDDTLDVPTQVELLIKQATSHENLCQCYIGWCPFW

Structure (SMILES)	IC50 (mTOR) [nM]	IC50 (PI3K-alpha) [nM]	IC50 (LNCap; LNCaP, 72 h) [nM]	IC50 (MDA468; 72 h) [nM]	IC50 (LNCap) [nM]	IC50 (MDA468) [nM]
CC(C)Oc1cc(N2CC3CCC(C2)O3)nc(-c2ccc(NC(=O)NC3CC3)cc2)n1 [1-cyclopropyl-3-{4-[4-(1-methylethoxy)-6-(8-oxa-3-azabicyclo[3.2.1]oct-3-yl)pyrimidin-2-yl]phenyl}urea]	4.45	7200	290	1800	–	–
CCN(C(=O)Nc1ccc(N2CCN(C)CC2)cc1)c1ccc(-c2nc(N3CC4CCC(C3)O4)cc(N3CC4CCC(C3)O4)n2)cc1 [1-[4-(4,6-di-8-oxa-3-azabicyclo[3.2.1]oct-3-ylpyrimidin-2-yl)phenyl]-1-ethyl-3-[4-(4-methylpiperazin-1-yl)phenyl]urea]	195	2440	2800	7000	–	–
CS(=O)(=O)Cc1cc(N2CC3CCC(C2)O3)nc(-c2ccc(NC(=O)Nc3cccnc3)cc2)n1 [1-(4-{4-[(methylsulfonyl)methyl]-6-(8-oxa-3-azabicyclo[3.2.1]oct-3-yl)pyrimidin-2-yl}phenyl)-3-pyridin-3-ylurea]	1.02	341	195	170	–	–
CC(C)Nc1cc(N2C3CCC2COC3)nc(-c2ccc(NC(=O)Nc3ccc(N4CCN(C)CC4)cc3)cc2)n1 [1-{4-[4-(isopropylamino)-6-(3-oxa-8-azabicyclo[3.2.1]oct-8-yl)pyrimidin-2-yl]phenyl}-3-[4-(4-methylpiperazin-1-yl)phenyl]urea]	2.7	2000	19	34	–	–
CN1CCN(Cc2ccc(NC(=O)Nc3ccc(-c4nc(N5C6CCC5COC6)cc(N5C6CCC5COC6)n4)cc3)cc2)CC1 [1-[4-(4,6-di-3-oxa-8-azabicyclo[3.2.1]oct-8-ylpyrimidin-2-yl)phenyl]-3-{4-[(4-methylpiperazin-1-yl)methyl]phenyl}urea]	2.25	1950	≤ 0.8	4	–	–
CN1CCN(c2ccc(NC(=O)Nc3ccc(-c4nc(N5C6CCC5COC6)cc(N5C6CCC5COC6)n4)cc3)cc2)CC1 [1-[4-(4,6-di-3-oxa-8-azabicyclo[3.2.1]oct-8-ylpyrimidin-2-yl)phenyl]-3-[4-(4-methylpiperazin-1-yl)phenyl]urea]	1.7	1140	≤ 0.8	0.8	–	–
CNC(=O)Nc1ccc(-c2nc(-c3ccccc3)cc(N3CC4CCC(C3)O4)n2)cc1 [1-methyl-3-{4-[4-(8-oxa-3-azabicyclo[3.2.1]oct-3-yl)-6-phenylpyrimidin-2-yl]phenyl}urea]	22	953	510	2000	–	–
CN1CCN(Cc2ccc(NC(=O)Nc3ccc(-c4nc(CS(C)(=O)=O)cc(N5CC6CCC(C5)O6)n4)cc3)cc2)CC1 [1-{4-[(4-methylpiperazin-1-yl)methyl]phenyl}-3-(4-{4-[(methylsulfonyl)methyl]-6-(8-oxa-3-azabicyclo[3.2.1]oct-3-yl)pyrimidin-2-yl}phenyl)urea]	4.05	520	80	140	–	–
CN1CCN(c2ccc(NC(=O)Nc3ccc(-c4cc(N5CC6CCC(C5)O6)nc(-c5ccc(NC(=O)Nc6ccc(N7CCN(C)CC7)cc6)cc5)n4)cc3)cc2)CC1 [N′,N′″-{[6-(8-oxa-3-azabicyclo[3.2.1]oct-3-yl)pyrimidine-2,4-diyl]di-4,1-phenylene}bis{1-[4-(4-methylpiperazin-1-yl)phenyl]urea}]	2.15	1020	300	760	–	–
CNC(=O)Nc1ccc(-c2nc(OC(C)C)cc(N3CC4CCC(C3)O4)n2)cc1 [1-methyl-3-{4-[4-(1-methylethoxy)-6-(8-oxa-3-azabicyclo[3.2.1]oct-3-yl)pyrimidin-2-yl]phenyl}urea]	3	700	190	890	–	–
O=C(Nc1ccncc1)Nc1ccc(-c2cc(N3CC4CCC(C3)O4)nc(N3CC4CCC(C3)O4)n2)cc1 [1-[4-(2,6-di-8-oxa-3-azabicyclo[3.2.1]oct-3-ylpyrimidin-4-yl)phenyl]-3-pyridin-4-ylurea]	2.45	137	130	380	–	–
NC(=O)c1ccc(NC(=O)Nc2ccc(-c3cc(N4CC5CCC(C4)O5)nc(-c4ccc(NC(=O)Nc5ccc(C(N)=O)cc5)cc4)n3)cc2)cc1 [4,4′-{[6-(8-oxa-3-azabicyclo[3.2.1]oct-3-yl)pyrimidine-2,4-diyl]bis(4,1-phenylenecarbamoylimino)}dibenzamide]	0.58	44.5	–	–	41	45
CS(=O)(=O)Cc1cc(N2CC3CCC(C2)O3)nc(-c2ccc(NC(=O)NC3CC3)cc2)n1 [1-cyclopropyl-3-(4-{4-[(methylsulfonyl)methyl]-6-(8-oxa-3-azabicyclo[3.2.1]oct-3-yl)pyrimidin-2-yl}phenyl)urea]	5.7	4640	1000	2500	–	–
CCN(C(=O)Nc1ccncc1)c1ccc(-c2nc(N3CC4CCC(C3)O4)cc(N3CC4CCC(C3)O4)n2)cc1 [1-[4-(4,6-di-8-oxa-3-azabicyclo[3.2.1]oct-3-ylpyrimidin-2-yl)phenyl]-1-ethyl-3-pyridin-4-ylurea]	200	2260	5800	20000	–	–
CN1CCN(c2ccc(NC(=O)Nc3ccc(-c4nc(CS(C)(=O)=O)cc(N5CC6CCC(C5)O6)n4)cc3)cc2)CC1 [1-[4-(4-methylpiperazin-1-yl)phenyl]-3-(4-{4-[(methylsulfonyl)methyl]-6-(8-oxa-3-azabicyclo[3.2.1]oct-3-yl)pyrimidin-2-yl}phenyl)urea]	2.95	343	15	30	–	–
CNC(=O)Nc1ccc(-c2nc(N3CC4CCC(C3)O4)cc(N3CC4CCC(C3)O4)n2)cc1 [1-[4-(4,6-di-8-oxa-3-azabicyclo[3.2.1]oct-3-ylpyrimidin-2-yl)phenyl]-3-methylurea]	7.05	1080	250	1000	–	–
CNC(=O)Nc1ccc(-c2nc(CS(C)(=O)=O)cc(N3CC4CCC(C3)O4)n2)cc1 [1-methyl-3-(4-{4-[(methylsulfonyl)methyl]-6-(8-oxa-3-azabicyclo[3.2.1]oct-3-yl)pyrimidin-2-yl}phenyl)urea]	13.5	1730	2050	3300	–	–
O=C(Nc1ccc(-c2nc(-c3ccccc3)cc(N3CC4CCC(C3)O4)n2)cc1)OCCO [2-hydroxyethyl {4-[4-(8-oxa-3-azabicyclo[3.2.1]oct-3-yl)-6-phenylpyrimidin-2-yl]phenyl}carbamate]	21.5	452	600	5500	–	–
O=C(Nc1ccc(-c2nc(-c3ccccc3)cc(N3CC4CCC(C3)O4)n2)cc1)NC1CC1 [1-cyclopropyl-3-{4-[4-(8-oxa-3-azabicyclo[3.2.1]oct-3-yl)-6-phenylpyrimidin-2-yl]phenyl}urea]	19.5	3680	1000	5000	–	–
O=C(Nc1ccc(-c2cc(N3CC4CCC(C3)O4)nc(-c3ccc(NC(=O)OCCO)cc3)n2)cc1)OCCO [bis(2-hydroxyethyl) {[6-(8-oxa-3-azabicyclo[3.2.1]oct-3-yl)pyrimidine-2,4-diyl]di-4,1-phenylene}biscarbamate]	9.4	5000	240	1600	–	–

Reference: patent US8835429B2, “Pyrimidine compounds, their use as mTOR kinase and Pl3 kinase inhibitors, and their syntheses” (Wyeth LLC, priority 2009, dated 2014)
